Data taken from patent US20050112573A1, “Method of detecting toxic substance” (priority 2001, published 2005).

Tested on: yeast genes (level of expressed mRNA)
Assay: DNA chip analysis of expressed mRNA of yeast genes after 2 h culture with a toxic chemical substance
Assay type: cell-based, Saccharomyces cerevisiae S288C
Experimental: Yeast (Saccharomyces cerevtisiae S288C (α SUC2mal mel gap2 CUP1)) were cultured at 25° C. on YPD medium (yeast extract 1%, polypepton 2%, glucose 2%). One of toxic chemical substances was added to the cell at logarithmic growth phase, and the cell was further cultured for two hours. Cell was cultured without any chemical substance in the same condition, and was used as control. Concentrations of the chemical substances were defined to inhibit the growth of the yeast but not lead to death.
After the completion of cultivation, the culture was centrifuged to collect the cells. To the cells, sodium acetate buffer (50 mM sodium acetate, 10 mM EDTA, 1% SDS) was added, and the mixture was shaken at 65° C. for five minutes, followed by returning to room temperature, and obtaining the supernatant, which procedure was repeated two times. To the supernatant, ½ amount of a solution of phenol/chloroform was added, and the mixture was centrifuged to give a supernatant, which was added with an equal amount of chloroform, and the mixture was centrifuged to give a supernatant. To the supernatant, an equal amount of isopropanol containing 0.3 M sodium acetate was added, and the mixture was allowed to stand at room temperature for 30 minutes, after which the mixture was centrifuged to give a sediment of the whole RNAs. Seventy % ethanol was added to the sediment, and the mixture was again centrifuged to give a sediment, which was then dried and dissolved in water. mRNA was isolated from the whole RNAs as followings. In view of the fact that a poly A chain is attached to the 3′ terminus of mRNA, a polynucleotide having a poly T structure which was immobilized on the surface of latex beads was used to trap the mRNA, and then the mRNA was washed and eluted with spine column (Oligotex-dT30<Super>mRNA Purification Kit, Takara). Reverse transcription of the mRNA was conducted with a reverse transcriptase (Super Script II Reverse Transcriptase; catalogue No. 18064-014, GibcoBRL) using fluorescence-labeled nucleotides to give cDNAs that were introduced with Cy3-dUTP or Cy5-dUTP during the reverse transcription.
The labeled cDNAs were dissolved in TE buffer (10 mM Tris-HCl/1 mM EDTA, pH8.0), and the solution was dropped on the DNA chip containing the whole genes of yeast (DNA Chip Research Inc. Japan) so that the cDNAs were hybridized on the DNA chip at 65° C. for over 12 hours. The fluoresces intensity of the DNA chip was read with a scanner, and the ratio relative to the fluorescence intensity resulting from the absence of chemical substance was estimated as the following, which is shown in Tables 1 to 9: [formula]
In the Tables, “Intensity” indicated in the rightmost column is a value of the level of expressed mRNA of each gene in control cells as divided by the average level of the expressions of the whole genes.

CCCCCCCCCCCCOS(=O)(=O)[O-].[Na+] [(18), sodium lauryl sulfate]
2.3: level of expressed mRNA in the presence of chemical substance/in its absence (gene YJR159W) | level of expressed mRNA in the presence of chemical substance/in its absence (gene YOR099W)
1.6: The level of expressed mRNA in the presence of chemical substance/absence: YJR044C (gene YJR044C) | The level of expressed mRNA in the presence of chemical substance/absence: YLR392C (gene YLR392C) | level of expressed mRNA in the presence of chemical substance/in its absence (gene YML110C)
1.8: level of expressed mRNA in the presence of chemical substance/in its absence (gene YHR190W) | The level of expressed mRNA in the presence of chemical substance/absence: YNL265C (gene YNL265C)
2.2: level of expressed mRNA in the presence of chemical substance/in its absence (gene YMR271C) | level of expressed mRNA in the presence of chemical substance/in its absence (gene YNR059W)
2.6: level of expressed mRNA in the presence of chemical substance/in its absence (gene YMR105C)
0.9: The level of expressed mRNA in the presence of chemical substance/absence: YGR293C (gene YGR293C) | The level of expressed mRNA in the presence of chemical substance/absence: YHL037C (gene YHL037C) | The level of expressed mRNA in the presence of chemical substance/absence: YHR105W (gene YHR105W) | The level of expressed mRNA in the presence of chemical substance/absence: YHR181W (gene YHR181W) | level of expressed mRNA in the presence of chemical substance/in its absence (gene YIR035C) | The level of expressed mRNA in the presence of chemical substance/absence: YJL037W (gene YJL037W) | level of expressed mRNA in the presence of chemical substance/in its absence (gene YJL088W) | The level of expressed mRNA in the presence of chemical substance/absence: YJR030C (gene YJR030C) | The level of expressed mRNA in the presence of chemical substance/absence: YKL059C (gene YKL059C) | level of expressed mRNA in the presence of chemical substance/in its absence (gene YNL104C) | level of expressed mRNA in the presence of chemical substance/in its absence (gene YNL106C) | The level of expressed mRNA in the presence of chemical substance/absence: YNL200C (gene YNL200C) | The level of expressed mRNA in the presence of chemical substance/absence: YOR155C (gene YOR155C) | The level of expressed mRNA in the presence of chemical substance/absence: YOR253W (gene YOR253W)
1.4: level of expressed mRNA in the presence of chemical substance/in its absence (gene YHR037W) | level of expressed mRNA in the presence of chemical substance/in its absence (gene YJR142W) | The level of expressed mRNA in the presence of chemical substance/absence: YKL051W (gene YKL051W) | The level of expressed mRNA in the presence of chemical substance/absence: YML079W (gene YML079W) | level of expressed mRNA in the presence of chemical substance/in its absence (gene YMR272C) | The level of expressed mRNA in the presence of chemical substance/absence: YNL026W (gene YNL026W) | The level of expressed mRNA in the presence of chemical substance/absence: YOL026C (gene YOL026C) | level of expressed mRNA in the presence of chemical substance/in its absence (gene YOL143C)
0.7: The level of expressed mRNA in the presence of chemical substance/absence: YHR095W (gene YHR095W) | The level of expressed mRNA in the presence of chemical substance/absence: YIL108W (gene YIL108W) | level of expressed mRNA in the presence of chemical substance/in its absence (gene YLR180W) | level of expressed mRNA in the presence of chemical substance/in its absence (gene YMR296C) | The level of expressed mRNA in the presence of chemical substance/absence: YOR088W (gene YOR088W)
0.6: The level of expressed mRNA in the presence of chemical substance/absence: YIL127C (gene YIL127C) | The level of expressed mRNA in the presence of chemical substance/absence: YLR338W (gene YLR338W) | The level of expressed mRNA in the presence of chemical substance/absence: YLR339C (gene YLR339C) | The level of expressed mRNA in the presence of chemical substance/absence: YNL191W (gene YNL191W)
1.3: level of expressed mRNA in the presence of chemical substance/in its absence (gene YHR092C) | The level of expressed mRNA in the presence of chemical substance/absence: YHR134W (gene YHR134W) | level of expressed mRNA in the presence of chemical substance/in its absence (gene YHR137W) | The level of expressed mRNA in the presence of chemical substance/absence: YIL165C (gene YIL165C) | The level of expressed mRNA in the presence of chemical substance/absence: YML041C (gene YML041C) | The level of expressed mRNA in the presence of chemical substance/absence: YMR114C (gene YMR114C) | The level of expressed mRNA in the presence of chemical substance/absence: YMR160W (gene YMR160W) | The level of expressed mRNA in the presence of chemical substance/absence: YMR258C (gene YMR258C) | level of expressed mRNA in the presence of chemical substance/in its absence (gene YNL037C) | level of expressed mRNA in the presence of chemical substance/in its absence (gene YNL169C) | The level of expressed mRNA in the presence of chemical substance/absence: YNL181W (gene YNL181W) | level of expressed mRNA in the presence of chemical substance/in its absence (gene YOL157C) | level of expressed mRNA in the presence of chemical substance/in its absence (gene YOR136W)
0.5: The level of expressed mRNA in the presence of chemical substance/absence: YKL097C (gene YKL097C) | level of expressed mRNA in the presence of chemical substance/in its absence (gene YLR300W)
1.9: level of expressed mRNA in the presence of chemical substance/in its absence (gene YJL196C) | The level of expressed mRNA in the presence of chemical substance/absence: YKL094W (gene YKL094W) | The level of expressed mRNA in the presence of chemical substance/absence: YMR071C (gene YMR071C)
1.2: level of expressed mRNA in the presence of chemical substance/in its absence (gene YIL033C) | The level of expressed mRNA in the presence of chemical substance/absence: YMR115W (gene YMR115W) | level of expressed mRNA in the presence of chemical substance/in its absence (gene YNL130C) | The level of expressed mRNA in the presence of chemical substance/absence: YNL212W (gene YNL212W) | The level of expressed mRNA in the presence of chemical substance/absence: YNL253W (gene YNL253W)
2.0: level of expressed mRNA in the presence of chemical substance/in its absence (gene YNR019W)
2.4: The level of expressed mRNA in the presence of chemical substance/absence: YNL194C (gene YNL194C) | level of expressed mRNA in the presence of chemical substance/in its absence (gene YOL126C)
0.8: level of expressed mRNA in the presence of chemical substance/in its absence (gene YIL167W) | The level of expressed mRNA in the presence of chemical substance/absence: YKR040C (gene YKR040C) | The level of expressed mRNA in the presence of chemical substance/absence: YML013W (gene YML013W) | level of expressed mRNA in the presence of chemical substance/in its absence (gene YMR189W) | The level of expressed mRNA in the presence of chemical substance/absence: YNL176C (gene YNL176C) | The level of expressed mRNA in the presence of chemical substance/absence: YNL276C (gene YNL276C) | The level of expressed mRNA in the presence of chemical substance/absence: YNR051C (gene YNR051C) | level of expressed mRNA in the presence of chemical substance/in its absence (gene YOL058W)
1.5: level of expressed mRNA in the presence of chemical substance/in its absence (gene YJL132W) | The level of expressed mRNA in the presence of chemical substance/absence: YKL100C (gene YKL100C) | The level of expressed mRNA in the presence of chemical substance/absence: YML118W (gene YML118W) | level of expressed mRNA in the presence of chemical substance/in its absence (gene YNL012W)
1.0: The level of expressed mRNA in the presence of chemical substance/absence: YHL006C (gene YHL006C) | The level of expressed mRNA in the presence of chemical substance/absence: YHR083W (gene YHR083W) | The level of expressed mRNA in the presence of chemical substance/absence: YHR180W (gene YHR180W) | level of expressed mRNA in the presence of chemical substance/in its absence (gene YIL154C) | The level of expressed mRNA in the presence of chemical substance/absence: YJL017W (gene YJL017W) | The level of expressed mRNA in the presence of chemical substance/absence: YKL090W (gene YKL090W) | The level of expressed mRNA in the presence of chemical substance/absence: YLR226W (gene YLR226W) | level of expressed mRNA in the presence of chemical substance/in its absence (gene YLR273C) | level of expressed mRNA in the presence of chemical substance/in its absence (gene YLR307W) | The level of expressed mRNA in the presence of chemical substance/absence: YLR415C (gene YLR415C) | The level of expressed mRNA in the presence of chemical substance/absence: YLR427W (gene YLR427W) | The level of expressed mRNA in the presence of chemical substance/absence: YML029W (gene YML029W) | The level of expressed mRNA in the presence of chemical substance/absence: YNL058C (gene YNL058C) | The level of expressed mRNA in the presence of chemical substance/absence: YNL063W (gene YNL063W) | level of expressed mRNA in the presence of chemical substance/in its absence (gene YNL322C) | The level of expressed mRNA in the presence of chemical substance/absence: YOL030W (gene YOL030W)
4.0: level of expressed mRNA in the presence of chemical substance/in its absence (gene YNL231C)
1.7: level of expressed mRNA in the presence of chemical substance/in its absence (gene YJR148W) | The level of expressed mRNA in the presence of chemical substance/absence: YLR097C (gene YLR097C) | level of expressed mRNA in the presence of chemical substance/in its absence (gene YOL153C)
1.1: The level of expressed mRNA in the presence of chemical substance/absence: YJL032W (gene YJL032W) | The level of expressed mRNA in the presence of chemical substance/absence: YJL049W (gene YJL049W) | The level of expressed mRNA in the presence of chemical substance/absence: YJL097W (gene YJL097W) | level of expressed mRNA in the presence of chemical substance/in its absence (gene YKR039W) | The level of expressed mRNA in the presence of chemical substance/absence: YMR068W (gene YMR068W) | level of expressed mRNA in the presence of chemical substance/in its absence (gene YNL045W) | level of expressed mRNA in the presence of chemical substance/in its absence (gene YNR033W) | The level of expressed mRNA in the presence of chemical substance/absence: YOR022C (gene YOR022C) | The level of expressed mRNA in the presence of chemical substance/absence: YOR087W (gene YOR087W) | level of expressed mRNA in the presence of chemical substance/in its absence (gene YOR130C) | The level of expressed mRNA in the presence of chemical substance/absence: YOR138C (gene YOR138C)
2.1: level of expressed mRNA in the presence of chemical substance/in its absence (gene YNR002C)
3.6: The level of expressed mRNA in the presence of chemical substance/absence: YHL021C (gene YHL021C)
3.2: level of expressed mRNA in the presence of chemical substance/in its absence (gene YKL067W) | level of expressed mRNA in the presence of chemical substance/in its absence (gene YLR142W)
